What all share (assay): NCI tumour cell line growth inhibition, 48 h
In assay [1] the test system is OVCAR-8 ovarian.
Assay [2] has as its system NCI-H23 lung.
The subject of assay [3] is SK-MEL-28 melanoma.
Assay [4] relates to TK-10 renal.
In assay [5] the test system is SK-MEL-5 melanoma.
Assay [6] has as its system ACHN renal.
The subject of assay [7] is HCT-15 colon.
Assay [8] deals with MOLT-4 leukemia.
The subject of assay [9] is HT29 colon.
The subject of assay [10] is LOX IMVI melanoma.
The test system of assay [11] is NCI-H460 lung.
Assay [12] relates to MALME-3M melanoma.
The test system of assay [13] is OVCAR-3 ovarian.
Assay [14] deals with SN12C renal.
The test system of assay [15] is U251 CNS.
Assay [16] relates to SK-MEL-2 melanoma.
Assay [17] relates to M14 melanoma.
For assay [18], the system named is SF-539 CNS.
Assay [19] relates to HL-60(TB) leukemia.
Assay [20] deals with SF-268 CNS.

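96-well plates; 48 h exposure; 5 concentrations. Endpoints by linear interpolation between flanking doses. Not reached: highest tested concentration assigned. TGI: concentration producing complete growth inhibition.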 Where only a bound is given, the exact number is not on record here.

In the case of `O=C1NP23(OCCO2)Oc2ccccc2C3(C(F)(F)F)O1` (stereo not given), the TGI in assay [1], in assay [2], in assay [3], in assay [4], in assay [5] and in [6] was more than 100 µM each time. Besides, the TGI in assay [7], in assay [8], in assay [9], in [10], in assay [11] and in assay [12] was more than 100 µM each time. Besides, the TGI in assay [13], in assay [14], in [15], in assay [16], in assay [17] and in [18] was more than 100 µM in each case. Further, the TGI in assay [19] and in assay [20] was more than 100 µM in each case.
`COc1ccc(/C(Cl)=C(\C=O)c2ccc(OC)c(OC)c2)cc1`: the TGI in assay [1], in assay [2], in assay [3], in [4], in assay [5] and in [6] was more than 100 µM in each case. Moreover, the TGI in assay [7], in [8], in assay [9], in assay [10], in assay [11] and in assay [12] was more than 100 µM each time. Moreover, the TGI in [13] is more than 100 µM; in assay [14] it was more than 100 µM; in assay [15], more than 100 µM; in [16], 76.6 µM; in assay [17] it was more than 100 µM; in assay [18], 58.5 µM. Further, the TGI in assay [19] and in assay [20] was more than 100 µM throughout.
With `O=C(O)C1C2C=CC(C2)C1c1ccccc1` (stereo not given), the TGI in [1], in assay [2], in assay [3], in assay [4], in assay [5] and in assay [6] was more than 100 µM in each case. For the same compound, the TGI in [7], in [8], in assay [9], in assay [10], in assay [11] and in assay [12] was more than 100 µM in each case. The TGI in assay [13], in assay [14], in assay [15], in assay [16], in assay [17] and in assay [18] was more than 100 µM each time. Besides, the TGI in [19] and in assay [20] was more than 100 µM throughout.
With `Cc1cc(C)c(C[C@H]2COC(=O)[C@]2(O)Cc2c(C)cc(C)cc2C)c(C)c1`, the TGI in assay [1] is 45.2 µM; in [2] it was 47.2 µM; in assay [3], 76.5 µM; in assay [4] it was 37.6 µM; in assay [5], 39.6 µM; in assay [6], 35.7 µM. The TGI in assay [7] is 36.2 µM; in assay [8], more than 100 µM; in assay [9] it was more than 100 µM; in [10], 36.1 µM; in assay [11], 33.3 µM; in [12] it was 29.9 µM. The TGI is 31.3 µM in assay [13]; 36.8 µM in [14]; 38.4 µM in [15]; 40.2 µM in assay [16]; 36.3 µM in [17]; 74.4 µM in assay [18]. In addition, the TGI in assay [19] was determined as 42.4 µM; in assay [20] it was 30 µM.
As for `CCOP(=O)(COCCn1ncc(=O)[nH]c1=O)OCC`, the TGI in [1], in assay [2], in assay [3], in assay [4], in assay [5] and in assay [6] was more than 100 µM throughout. The TGI in assay [7], in [8], in assay [9], in assay [10], in [11] and in assay [12] was more than 100 µM throughout. Further, the TGI in assay [13], in [14], in [15], in assay [16], in [17] and in [18] was more than 100 µM throughout. Further, the TGI in assay [19] and in [20] was more than 100 µM in each case.
Regarding `COc1cc(O)c(C(=O)/C=C/c2ccc(O)cc2)cc1Oc1ccc(/C=C/C(=O)c2ccc(O)cc2O)cc1`, the TGI in assay [1] was determined as 24.7 µM; in [2], 33.2 µM; in [3] it was 15.2 µM; in assay [4] it was 25.6 µM; in assay [5], 14.3 µM; in [6], 15.7 µM. Also, the TGI in assay [7] is 21 µM; in assay [8] it was 38.8 µM; in assay [9], 14.2 µM; in assay [10] it was 18.3 µM; in [11] it was 30.4 µM; in [12], 17.6 µM. Besides, the TGI in [13] was determined as 17 µM; in [14], 19.4 µM; in assay [15], 17.2 µM; in assay [16], 21.9 µM; in assay [17], 17.4 µM; in [18], 16.2 µM. The TGI turned out to be 34 µM in assay [19] and 20.5 µM in [20].
For the compound `CN1C(=O)CSC1=S`, the TGI in assay [1], in [2], in assay [3], in [4], in assay [5] and in assay [6] was more than 100 µM in each case. The TGI in assay [7], in [8], in assay [9], in assay [10], in assay [11] and in assay [12] was more than 100 µM throughout. Moreover, the TGI in assay [13], in assay [14], in assay [15], in assay [16], in assay [17] and in assay [18] was more than 100 µM throughout. In addition, the TGI in assay [19] and in assay [20] was more than 100 µM throughout.
Consider `COC(=O)c1ccccc1Nc1nc(-c2cccs2)nc2cc(OC)c(OC)cc12`, for which the TGI was more than 100 µM in [1]; more than 100 µM in [2]; more than 100 µM in assay [3]; 70.2 µM in assay [4]; more than 100 µM in assay [5]; more than 100 µM in [6]. The TGI in assay [7], in assay [8], in assay [9], in [10], in assay [11] and in assay [12] was more than 100 µM each time. For the same compound, the TGI in [13] was 72.2 µM; in assay [14] it was more than 100 µM; in assay [15], more than 100 µM; in [16] it was more than 100 µM; in assay [17], more than 100 µM; in [18], 85.9 µM. The TGI in assay [19] and in assay [20] was more than 100 µM in each case.
As for `COc1c(OC(C)=O)c(OC(C)=O)cc2c1-c1ccc(SC)c(=O)cc1C(NC(C)=O)CC2` (stereo not given), the TGI in assay [1] is more than 100 µM; in [2] it was 28.7 µM; in assay [3], more than 100 µM; in assay [4] it was more than 96.3 µM; in assay [5], 0.794 µM; in [6] it was more than 100 µM. The TGI in assay [7] is more than 97.5 µM; in [8], more than 100 µM; in assay [9], more than 100 µM; in assay [10], more than 100 µM; in assay [11], more than 56.1 µM; in assay [12] it was more than 100 µM. Further, the TGI in assay [13] is more than 100 µM; in assay [14] it was more than 100 µM; in [15], more than 42.2 µM; in [16], more than 100 µM; in assay [17], more than 100 µM; in assay [18], 0.846 µM. Further, the TGI in assay [19] is 0.61 µM; in [20] it was more than 100 µM.
On to `O=C(c1ccccc1)c1c(-c2ccccc2)n(-c2ccccc2)[nH]c(=O)c1=O`, for which the TGI in assay [1], in [2], in assay [3], in assay [4], in assay [5] and in [6] was more than 100 µM in each case. The TGI in [7], in [8], in [9], in assay [10], in assay [11] and in assay [12] was more than 100 µM each time. The TGI in assay [13] is more than 100 µM; in assay [14], more than 100 µM; in [15] it was more than 100 µM; in assay [16], 65.7 µM; in assay [17] it was more than 100 µM; in [18], 46.8 µM. For the same compound, the TGI in assay [19] was 85 µM; in assay [20] it was more than 100 µM.
As for `C=CC1C(OC2OC(CO)C(O)C(O)C2O)OC=C(C(=O)OC)C1CC1CC(=O)CC(CCc2ccc(O)cc2)O1` (stereo not given), the TGI in [1], in assay [2], in assay [3], in assay [4], in assay [5] and in [6] was more than 100 µM in each case. Further, the TGI in [7], in assay [8], in assay [9], in assay [10], in assay [11] and in [12] was more than 100 µM throughout. Moreover, the TGI in [13], in [14], in assay [15], in assay [16], in assay [17] and in [18] was more than 100 µM in each case. The TGI in assay [19] and in assay [20] was more than 100 µM each time.
As for `CCC(C)C1NC(=O)C(NC(=O)c2c3[nH]c4c(C(=O)NC5C(=O)NC(C(C)CC)C(=O)N6CCCC6C(=O)N(C)CC(=O)N(C)C(C(C)C)C(=O)OC5C)ccc(C)c4oc-3c(C)c(=O)c2=O)C(C)OC(=O)C(C(C)C)N(C)C(=O)CN(C)C(=O)C2CCCN2C1=O` (stereo not given), the TGI in assay [1] is 38.3 µM; in assay [2] it was 45.3 µM; in assay [3] it was 76.3 µM; in assay [4], 98.4 µM; in assay [5], more than 100 µM; in assay [6], 65.2 µM. In addition, the TGI in assay [7] is more than 100 µM; in assay [8], more than 39.8 µM; in assay [9], 29.2 µM; in assay [10] it was more than 53.4 µM; in assay [11] it was 8.45 µM; in assay [12], 22.8 µM. The TGI in assay [13] is 62.9 µM; in assay [14] it was more than 100 µM; in [15], more than 100 µM; in assay [16] it was 17.2 µM; in assay [17], 40.5 µM; in [18], 37.4 µM. The TGI in assay [19] was 52.2 µM; in assay [20], 97.4 µM.

Values taken from PubChem BioAssay (NCI).
